This note sets out measurements from PMC11435438, “Cyclin-Dependent Kinase 8 Represents a Positive Regulator of Cytomegalovirus Replication and a Novel Host Target for Antiviral Strategies” (Pharmaceutics, 2024).

One experiment deals with RhCMV-GFP. The experiment can be described thus: RhCMV-GFP replication assay in HFFs. In kind it is cell-based, rhesus cytomegalovirus. Conditions: in Macaca mulatta, read-out: EC50 RhCMV. From the text:
(§1) Similarly, 2 × 10^4 primary embryonic guinea pig fibroblasts GPEFs/96-well, or 1.35 × 10^4 HFFs/96-well, or 2 × 10^4 rat REFs/96-well, or 2 × 10^4 murine MEFs/96-well, were cultivated for infection with GPCMV-GFP, RhCMV-GFP, ChCMV, RCMV-mCherry, or MCMV-GFP, respectively (all approx. MOI of 0.01 referring to 1 × TCID25), and were used for the assessment of antiviral drug activity. To this end, cells were fixed 7 d p.i. (RCMV-mCherry 4 d p.i.), before GFP or mCherry expression was quantified using the Victor X4 microplate reader, or other viral replication markers were measured as explained for the individual experiments. ChCMV replication in HFFs was monitored and quantified by the use of Anti-Cytomegalovirus Antibody Alexa Fluor™ 488. For immunofluorescence staining with Anti-Cytomegalovirus Antibody Alexa Fluor™ 488 (Sigma Aldrich, St. Louis, MO, USA; solution in PBS with 1% FCS), the infected cells were fixed at 7 d p.i. with 10% formalin and permeabilized with 0.2% Triton-x-100. Cell nuclei were counterstained using Höchst dye to be measured using the ImageXpress Pico (Molecular Devices, LLC, San Jose, CA, USA). Mean EC50 values of antiviral efficacy were calculated on the basis of three experimental replicates or as indicated (measurement of fluorescence values in quadruplicate), and percentage values were provided relative to the solvent control (DMSO).

The next experiment concerns KSHV rKSHV.219-GFP. As to the kind of experiment: KSHV lytic replication assay in iSLK.219 cells. In kind it is cell-based, Kaposi's sarcoma-associated herpesvirus. Conditions: Human gammaherpesvirus 8, read-out: EC50 KSHV. The protocol:
(§2) Primary human foreskin fibroblasts (HFFs; obtained from clinical samples at Children’s Hospital in Erlangen, Germany), guinea pig embryonic fibroblasts (GPEFs; generously provided by Mark R. Schleiss from the University of Minnesota in Minneapolis, MN, USA), and rat embryonic fibroblasts were cultivated in Eagle’s Minimal Essential Medium (MEM) supplemented with 1 × GlutaMAX™ (both from Thermo Fisher Scientific, Waltham, MA, USA), 10 µg/mL gentamicin, and 10% fetal bovine serum (FBS; Capricorn, Ebsdorfergrund, Germany). Human glioblastoma–astrocytoma cell line (U373) and mouse embryonic fibroblasts (MEFs), both obtained from ATCC (Manassas, VA, USA), and Vero cell sublineage 76 [26], were cultivated in Dulbecco’s modified Eagle’s medium (DMEM) supplemented with 1 × GlutaMAX™, 10 µg/mL gentamicin, and 10% fetal bovine serum. All cultured cells were maintained under the conditions of 37 °C temperature, 5% CO2, and 80% humidity. The regular monitoring for the absence of mycoplasma contamination was conducted using Lonza™ Mycoalert™ (Thermo Fisher Scientific, Waltham, MA, USA). Cultured cell-based viral replication assays were performed by the use of the HCMV strain AD169 (variant U.K.), the recombinant HCMVs AD169-GFP expressing green fluorescent protein [27], TB40 IE2-YFP and TB40-FLuc expressing an IE2-YFP fusion protein or firefly luciferase (FLuc), and Merlin-GFP [31]. […]
(§3) A variety of antiherpesviral and non-herpesviral drug activities were assessed by the cell culture-based viral replication systems, as described elsewhere. […] After incubation at 37 °C for 3 days, iSLK.219 cells were fixed with 10% formalin, washed with PBS, and used for a quantitation of RFP reporter signal by PicoMD counting (ImageXpress® Pico device, Molecular Devices LLC, San Jose, CA, USA). […]

Another experiment has as its system MCMV-GFP. The experiment can be described thus: MCMV-GFP replication assay in MEFs. In kind it is cell-based, murine cytomegalovirus. Conditions: Murid betaherpesvirus 1, read-out: EC50 MCMV.
Description: as §1

In experiment [1] the test system is HAdV species C5 DBP-mneongreen. As to the kind of experiment: HAdV replication assay in A549 cells. In kind it is cell-based. To be noted: Human adenovirus sp., A549, read-out: EC50 HAdV. On the procedure:
as §2, §3

For the next experiment, the system named is HHV-6A-GFP. As to the kind of experiment: HHV-6A replication assay in J-Jhan cells. To be noted: Homo sapiens, read-out: EC50 HHV-6A. In kind it is cell-based, human herpesvirus type 6A. On the procedure:
as §2, §3

What is called EC50 is the concentration needed to bring the measured effect to its halfway point. On to `Cc1n[nH]c2ncc(C(=O)N3CCC[C@H]3c3ccc(Cl)cc3)cc12` [MSC-2530818], for which the EC50 was 2.17 ± 1.37 nM in the experiment with RhCMV-GFP; greater than 40000 nM in the experiment on KSHV rKSHV.219-GFP; 1.8 ± 1.99 nM in the experiment on MCMV-GFP; 340 ± 260 nM in experiment [1]; greater than 50000 nM with HHV-6A-GFP.

Regarding `CN(C)C(=O)Cn1cc(-c2ccc(-c3cncc4ccccc34)cc2)cn1` [BI-1347], the EC50 in the experiment on RhCMV-GFP was 0.4 ± 0.48 nM; in the experiment on KSHV rKSHV.219-GFP, 310 ± 610 nM; in the experiment on MCMV-GFP, 1.57 ± 1.71 nM; in experiment [1] it was 50 ± 110 nM; with HHV-6A-GFP it was greater than 50000 nM.

In the case of `Cn1ncc2cc(-c3cnc(N)c(Cl)c3N3CCC4(CCNC4=O)CC3)ccc21` [CCT-151921], the EC50 in the experiment with RhCMV-GFP was determined as 2.48 ± 1.63 nM; with KSHV rKSHV.219-GFP it was 300 nM; in the experiment on MCMV-GFP, 2.65 ± 4.5 nM; in experiment [1], 30 ± 30 nM; in the experiment with HHV-6A-GFP it was 39000 ± 21000 nM.
